The source of these data is US6949648B2, “Condensed pyrazole derivatives, process for producing the same and use thereof” (Takeda Pharmaceutical Company Limited, priority 2000, dated 2005).

Structures can show the parent of a compound that is named as a salt.

On to `Cc1nn(-c2ccncc2)c2nc3ccccc3c(N)c12.Cl.Cl`, for which the melting point – broadly, the temperature, or range, at which the solid turns liquid – was 259 to 266 °C.

`CSc1ccc2nc3c(c(C)nn3-c3ccccn3)c(Cl)c2c1` [Example 2-49, 4-Chloro-3-methyl-6-(methylsulfanyl)-1-(2-pyridinyl)-1H-pyrazolo[3,4-b]quinoline] registered a melting point of 182 °C.

`Cc1nn(-c2ccccn2)c2[nH]c3ccc([S+](C)[O-])cc3c(=O)c12` (stereo not shown) [Example 2-51, 3-Methyl-6-(methylsulfinyl)-1-(2-pyridinyl)-1,9-dihydro-4H-pyrazolo[3,4-b]quinolin-4-one] displayed a melting point of 268 to 269 °C.

For `Cc1nn(-c2ccccn2)c2[nH]c3cc(C(=O)O)ccc3c(=O)c12` [Example 2-68, 3-Methyl-4-oxo-1-(2-pyridinyl)-4,9-dihydro-1H-pyrazolo[3,4-b]quinoline-7-carboxylic acid], the melting point is greater than 300 °C.

The compound `Cc1ccc2nc3c(c(C)nn3-c3ccccn3)c(N)c2c1.Cl` registered a melting point of 287 to 290 °C.

With `Cc1nn(-c2ccccn2)c2[nH]c3cc(F)c(F)cc3c(=O)c12.O` (hydrate or solvate) [Example 2-92, 6,7-Difluoro-3-methyl-1-(2-pyridinyl)-1,9-dihydro-4H-pyrazolo[3,4-b]quinolin-4-one monohydrate], the melting point is 273 to 275 °C.

Compound `Cc1nn(-c2ccccn2)c2nc3ccccc3c(OC3CCCCC3)c12` [Example 2-22, 4-Cyclohexyloxy-3-methyl-1-(2-pyridinyl)-1H-pyrazolo[3,4-b]quinoline] displayed a melting point of 88 to 91 °C.

In turn, `Cc1nn(-c2nccs2)c2nc3ccccc3c(Cl)c12` [Example 2-149, 4-Chloro-3-methyl-1-(1,3-thiazol-2-yl)-1H-pyrazolo[3,4-b]quinoline] had a melting point of 208 to 209 °C.

With `Cc1cccnc1-n1nc(C)c2c(Cl)c3c(C)cccc3nc21` [Example 2-123, 4-Chloro-3,5-dimethyl-1-(3-methyl-2-pyridinyl)-1H-pyrazolo[3,4-b]quinoline], the melting point is 176 to 178 °C.

For `Cc1cccc2nc3c(c(C)nn3-c3ccccn3)c(Cl)c12` [Example 2-29, 4-Chloro-3,5-dimethyl-1-(2-pyridinyl)-1H-pyrazolo[3,4-b]quinoline], the melting point lay within 167 to 169 °C.

Compound `CCCN(C)c1c2ccccc2nc2c1c(C)nn2-c1ccccn1` [Example 2-9, N-Methyl-N-[3-methyl-1-(2-pyridinyl)-1H-pyrazolo[3,4-b]quinolin-4-yl]-N-propylamine] registered a melting point of 110 to 112 °C.

`Cc1nn(-c2nccs2)c2nc3ccccc3c(N)c12` [Example 2-150, 3-Methyl-1-(1,3-thiazol-2-yl)-1H-pyrazolo[3,4-b]quinolin-4-ylamine] had a melting point of 261 to 263 °C.

Turning to `Clc1ccc2nc3c(cnn3-c3ccccn3)c(Cl)c2c1` [Example 2-160, 4,6-Dichloro-1-(2-pyridinyl)-1H-pyrazolo[3,4-b]quinoline], the melting point lay in the range of 175 to 176 °C.

For the compound `Cc1nn(-c2ccccn2)c2nc3ccccc3c(C(N)=O)c12` [Example 2-108, 3-Methyl-1-(2-pyridinyl)-1H-pyrazolo[3,4-b]quinoline-4-carboxamide], the melting point was greater than 300 °C.

On to `Cc1cccc(-n2nc(C)c3c(=O)c4ccccc4[nH]c32)n1` [Example 2-208, 3-Methyl-1-(6-methyl-2-pyridinyl)-1,9-dihydro-4H-pyrazolo[3,4-b]quinolin-4-one], for which the melting point worked out at 252 °C.

The compound `Cc1nn(-c2ccccn2)c2nc3ccc(Cl)cc3c(N)c12` [Example 2-71, 6-Chloro-3-methyl-1-(2-pyridinyl)-1H-pyrazolo[3,4-b]quinolin-4-ylamine] showed a melting point of 289 to 292 °C.

For `Cc1ccc(-n2nc(C)c3c(N)c4cccc(C)c4nc32)nc1` [Example 2-132, 3,8-Dimethyl-1-(5-methyl-2-pyridinyl)-1H-pyrazolo[3,4-b]quinolin-4-ylamine], the melting point is 257 to 260 °C.

The compound `Cc1nn(Cc2cccnc2)c2[nH]c3ccccc3c(=O)c12` [Example 2-191, 3-Methyl-1-(3-pyridinylmethyl)-1,9-dihydro-4H-pyrazolo[3,4-b]quinolin-4-one] showed a melting point of 285 to 288 °C.

Turning to `Cc1cc(O)nc2c1c(C)nn2-c1ccccn1` [Example 1-23, 3,4-Dimethyl-1-(2-pyridinyl)-1H-pyrazolo[3,4-b]pyridin-6-ol], the melting point was in the range of 254 to 255 °C.

`Cc1cccnc1-n1nc(C)c2c(=O)c3ccccc3[nH]c21` [Example 2-120, 3-Methyl-1-(3-methyl-2-pyridinyl)-1,9-dihydro-4H-pyrazolo[3,4-b]quinolin-4-one] had a melting point of 184 to 185 °C.

In the case of `Cc1nn(-c2ccccn2)c2[nH]c3cccc(Cl)c3c(=O)c12` [Example 2-69, 5-Chloro-3-methyl-1-(2-pyridinyl)-1,9-dihydro-4H-pyrazolo[3,4-b]quinolin-4-one], the melting point lay within 212 to 213 °C.

`Cc1nn(-c2ccccn2)c2[nH]c3ccsc3c(=O)c12` [Example 2-156, 3-Methyl-1-(2-pyridinyl)-1,8-dihydro-4H-pyrazolo[3,4-b]thieno[2,3-e]pyridin-4-one] gave a melting point of 228 to 229 °C.

In turn, `CC(C)c1nn(-c2ccccn2)c2nc3ccccc3c(Cl)c12` [Example 2-172, 4-Chloro-3-isopropyl-1-(2-pyridinyl)-1H-pyrazolo[3,4-b]quinoline] yielded a melting point of 146 to 148 °C.

For `Cc1nn(-c2ccccn2)c2nc3ccsc3c(Cl)c12` [Example 2-155, 4-Chloro-3-methyl-1-(2-pyridinyl)-1H-pyrazolo[3,4-b]thieno[2,3-e]pyridine], the melting point was in the range of 230 to 231 °C.

Take `Cc1nn(-c2ccccn2)c2ncc(C(=O)Nc3ccc(F)cc3)c(O)c12` [Example 1-14, N-(4-Fluorophenyl)-4-hydroxy-3-methyl-1-(2-pyridinyl)-1H-pyrazolo[3,4-b]pyridine-5-carboxamide]: the melting point was greater than 300 °C.

`Cc1nn(-c2cccnc2)c2[nH]c3ccccc3c(=O)c12` [Example 2-138, 3-Methyl-1-(3-pyridinyl)-1,9-dihydro-4H-pyrazolo[3,4-b]quinolin-4-one] had a melting point of 282 to 283 °C.

On to `Cc1nn(-c2ncccn2)c2nc3ccccc3c(N)c12` (as salt: hydrochloride) [Example 1-65, 3-Methyl-1-(2-pyrimidinyl)-1H-pyrazolo[3,4-b]quinolin-4-ylamine hydrochloride], for which the melting point fell in the range of 287 to 290 °C.

Compound `Cc1nn(-c2ccccn2)c2c1c(=O)c1ccccc1n2C` [Example 2-14, 3,9-Dimethyl-1-(2-pyridinyl)-1,9-dihydro-4H-pyrazolo[3,4-b]quinolin-4-one] came in with a melting point of 192 to 193 °C.

In turn, `Cc1c(O)nc2c(c(C)nn2-c2ccccn2)c1C` [Example 1-24, 3,4,5-Trimethyl-1-(2-pyridinyl)-1H-pyrazolo[3,4-b]pyridin-6-ol] displayed a melting point of 226 to 228 °C.

Take `Cc1cccnc1-n1nc(C)c2c(N)c3ccccc3nc21` [Example 2-119, 3-Methyl-1-(3-methyl-2-pyridinyl)-1H-pyrazolo[3,4-b]quinolin-4-ylamine]: the melting point is 202 to 205 °C.

`Cc1nn(-c2ccccn2)c2ncc(C(=O)Nc3cccc(F)c3)c(O)c12` [Example 1-13, N-(3-Fluorophenyl)-4-hydroxy-3-methyl-1-(2-pyridinyl)-1H-pyrazolo[3,4-b]pyridine-5-carboxamide]: the melting point is greater than 300 °C.

In turn, `Cc1nn(-c2ccccn2)c2ncc(C(=O)Nc3ccccc3)c(O)c12` [Example 1-11, 4-Hydroxy-3-methyl-N-phenyl-1-(2-pyridinyl)-1H-pyrazolo[3,4-b]pyridine-5-carboxamide] returned a melting point greater than 300 °C.

On to `Cc1nn(-c2ccccn2)c2[nH]c3ccc(F)c(F)c3c(=O)c12` [Example 2-89, 5,6-Difluoro-3-methyl-1-(2-pyridinyl)-1,9-dihydro-4H-pyrazolo[3,4-b]quinolin-4-one], for which the melting point was in the range of 300 to 303 °C.

Compound `COc1c2ccccc2nc2c1c(C)nn2Cc1ccccn1` [Example 2-190, 4-Methoxy-3-methyl-1-(2-pyridinylmethyl)-1H-pyrazolo[3,4-b]quinoline] yielded a melting point of 111 to 113 °C.

On to `CCOC(=O)c1cnc2c(c(C)nn2-c2ccccn2)c1N` [Example 1-31, Ethyl 4-amino-3-methyl-1-(2-pyridinyl)-1H-pyrazolo[3,4-b]pyridine-5-carboxylate], for which the melting point lay in the range of 147 to 149 °C.

The compound `Cc1cccnc1-n1nc(C)c2c(N)c3cccc(C)c3nc21` [Example 2-134, 3,8-Dimethyl-1-(3-methyl-2-pyridinyl)-1H-pyrazolo[3,4-b]quinolin-4-ylamine] came in with a melting point of 199 to 202 °C.

The compound `Cc1nn(-c2ccccn2)c2nc3cc(F)c(F)cc3c(OC(C)C)c12` [Example 2-95, 6,7-Difluoro-4-isopropoxy-3-methyl-1-(2-pyridinyl)-1H-pyrazolo[3,4-b]quinoline] yielded a melting point of 159 to 160 °C.

`CCOC(=O)c1nn(-c2ccccn2)c2nc3ccccc3c(Cl)c12` [Example 2-179, Ethyl 4-chloro-1-(2-pyridinyl)-1H-pyrazolo[3,4-b]quinoline-3-carboxylate] gave a melting point of 164 to 166 °C.

Turning to `Cc1nn(-c2ncccn2)c2nc3ccccc3c(Cl)c12` [Example 2-144, 4-Chloro-3-methyl-1-(2-pyrimidinyl)-1H-pyrazolo[3,4-b]quinoline], the melting point is 257 to 260 °C.

For the compound `CCc1c2ccccc2nc2c1c(C)nn2-c1ccccn1` [Example 2-102, 4-Ethyl-3-methyl-1-(2-pyridinyl)-1H-pyrazolo[3,4-b]quinoline], the melting point fell in the range of 112 to 114 °C.

`Cc1cccc2c(N)c3c(C)nn(-c4ccc5ccccc5n4)c3nc12` [Example 2-153, 3,8-Dimethyl-1-(2-quinolinyl)-1H-pyrazolo[3,4-b]quinolin-4-ylamine] returned a melting point of 273 to 276 °C.

In the case of `CCc1nn(-c2ccccn2)c2nc3ccccc3c(N)c12.Cl`, the melting point lay in the range of 249 to 252 °C.

In the case of `Cc1nn(-c2nccs2)c2[nH]c3ccccc3c(=O)c12` [Example 2-151, 3-Methyl-1-(1,3-thiazol-2-yl)-1,9-dihydro-4H-pyrazolo[3,4-b]quinolin-4-one], the melting point fell in the range of 226 to 227 °C.
